Source: paper PMC7019114, “Bioactivity, Compounds Isolated, Chemical Qualitative, and Quantitative Analysis of Cymbaria daurica Extracts” (Frontiers in Pharmacology, 2020)

Tests used:
[1] = test system: streptozotocin-induced diabetic rats; parameters: method as in Huang et al., 2010; details: intravenous injection, ref Huang et al., 2010; cited from earlier work
[2] = test system: intestinal inflammation model; parameters: method as in Carrillo-Ocampo et al., 2013; details: ref Carrillo-Ocampo et al., 2013; cited from earlier work
[3] = test system: tyrosine phosphatase SHP-1; parameters: method as in Pesce et al., 2015; details: U937 cell line; ref Pesce et al., 2015; cited from earlier work
[4] = test system: LPS-induced NO production in RAW 264.7 cell; assay: Nitric oxide assay (Griess test), LPS-induced NO production; format: cell-based; details: Mus musculus; RAW264.7 cell, LPS 1 μg/mL, positive control, n = 5; read-out: IC50 of inhibitory activity on LPS-induced NO production
Protocol: RAW 264.7 mouse macrophages were cultured in high glucose DMEM supplemented with 10% FBS and a mixture of penicillin and streptomycin. The cells were maintained in a humidified incubator with an atmosphere of 5% CO2 at 37°C. RAW 264.7 cells were plated at a density of 5 × 10^5 cells/mL in 24-well plates, cultured for 12 h, and then treated with LPS (1 μg/mL) and incubated for 4 h. Thereafter, the cells were treated with different concentrations (25, 50, 100, 200, and 400 μg/mL) of C. daurica extracts (water, n-butanol, ethyl acetate, and petroleum-ether extracts) and incubated for an additional 20 h. […] The amount of NO in the medium was detected using the Griess test. One hundred microliters of each supernatant were mixed with equal volume of Griess reagent (1% sulfanilamide in 5% phosphoric acid and 0.1% naphthylethylenediamine dihydrochloride in water). The absorbance of the mixture at 550 nm and concentration of nitrite were determined using serially diluted sodium nitrite as the standard ([Qiao et al., 2005]).

OC[C@H]1O[C@@H](O[C@@H]2OC=C[C@H]3[C@H](O)[C@@H]4O[C@]4(CO)[C@@H]23)[C@H](O)[C@@H](O)[C@@H]1O [Compound 1, catalpol]
anti-hyperglycemic activity [1]: exhibited anti-hyperglycemic activity in a dose-dependent manner

C[C@@H]1O[C@@H](O[C@@H]2[C@@H](O)[C@H](OCCc3ccc(O)c(O)c3)O[C@H](CO)[C@H]2OC(=O)/C=C/c2ccc(O)c(O)c2)[C@H](O)[C@H](O)[C@H]1O [Compound 7, verbascoside]
presence of pro-inflammatory molecules [2]: decreased the presence of pro-inflammatory molecules
activity of tyrosine phosphatase SHP-1 [3]: increasing the activity of tyrosine phosphatase SHP-1

COc1ccc2c(c1)c(CC(=O)O)c(C)n2C(=O)c1ccc(Cl)cc1 [Indomethacin]
IC50 [4]: 60 ± 0.8 µM
